# Source: paper PMC6683399, “Identification of a novel S6K1 inhibitor, rosmarinic acid methyl ester, for treating cisplatin-resistant cervical cancer” (BMC Cancer, 2019)
# Target: T1, S6K1 (p70 S6K1, ribosomal protein S6 kinase 1) (Homo sapiens, UniProt P23443)
# T1 construct: gene RPS6KB1; recombinant active S6K1 (R&D systems 896-KS)
# Test: in vitro kinase assay with recombinant S6K1 and GST-S6 (also H2B) substrate, […] ATP, immunoblot readout
# Type: biochemical
# T1 sequence (P23443 whole entry): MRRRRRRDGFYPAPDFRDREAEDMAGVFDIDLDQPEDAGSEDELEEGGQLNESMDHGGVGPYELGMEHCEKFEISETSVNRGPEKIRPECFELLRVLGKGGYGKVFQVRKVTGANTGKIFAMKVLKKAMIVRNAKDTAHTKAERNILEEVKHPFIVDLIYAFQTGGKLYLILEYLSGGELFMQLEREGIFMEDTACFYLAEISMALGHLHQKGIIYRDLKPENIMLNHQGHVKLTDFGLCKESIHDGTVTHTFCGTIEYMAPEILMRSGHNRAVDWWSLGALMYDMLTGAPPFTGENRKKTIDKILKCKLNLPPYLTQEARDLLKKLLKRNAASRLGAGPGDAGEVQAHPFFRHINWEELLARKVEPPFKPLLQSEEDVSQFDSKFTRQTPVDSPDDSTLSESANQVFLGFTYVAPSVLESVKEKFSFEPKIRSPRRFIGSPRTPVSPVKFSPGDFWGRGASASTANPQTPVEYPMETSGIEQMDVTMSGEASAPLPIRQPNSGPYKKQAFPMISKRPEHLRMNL
compound,measurement,value
"COC(=O)[C@@H](Cc1ccc(O)c(O)c1)OC(=O)/C=C/c1ccc(O)c(O)c1 [RAME, rosmarinic acid methyl ester]","in vitro kinase assay with recombinant S6K1 and GST-S6 (also H2B) substrate, 100",RAME inhibited the phosphorylation of S6 in dose-dependent manner (Fig. 2b)
